Experimental findings from the kinase profiling compilation of Christmann-Franck et al. (2016) are described below.

For orientation: residual activity means the signal under treatment as a percentage of the control signal.

EPHA7 (human), sequence (Q15375 whole entry, looked up): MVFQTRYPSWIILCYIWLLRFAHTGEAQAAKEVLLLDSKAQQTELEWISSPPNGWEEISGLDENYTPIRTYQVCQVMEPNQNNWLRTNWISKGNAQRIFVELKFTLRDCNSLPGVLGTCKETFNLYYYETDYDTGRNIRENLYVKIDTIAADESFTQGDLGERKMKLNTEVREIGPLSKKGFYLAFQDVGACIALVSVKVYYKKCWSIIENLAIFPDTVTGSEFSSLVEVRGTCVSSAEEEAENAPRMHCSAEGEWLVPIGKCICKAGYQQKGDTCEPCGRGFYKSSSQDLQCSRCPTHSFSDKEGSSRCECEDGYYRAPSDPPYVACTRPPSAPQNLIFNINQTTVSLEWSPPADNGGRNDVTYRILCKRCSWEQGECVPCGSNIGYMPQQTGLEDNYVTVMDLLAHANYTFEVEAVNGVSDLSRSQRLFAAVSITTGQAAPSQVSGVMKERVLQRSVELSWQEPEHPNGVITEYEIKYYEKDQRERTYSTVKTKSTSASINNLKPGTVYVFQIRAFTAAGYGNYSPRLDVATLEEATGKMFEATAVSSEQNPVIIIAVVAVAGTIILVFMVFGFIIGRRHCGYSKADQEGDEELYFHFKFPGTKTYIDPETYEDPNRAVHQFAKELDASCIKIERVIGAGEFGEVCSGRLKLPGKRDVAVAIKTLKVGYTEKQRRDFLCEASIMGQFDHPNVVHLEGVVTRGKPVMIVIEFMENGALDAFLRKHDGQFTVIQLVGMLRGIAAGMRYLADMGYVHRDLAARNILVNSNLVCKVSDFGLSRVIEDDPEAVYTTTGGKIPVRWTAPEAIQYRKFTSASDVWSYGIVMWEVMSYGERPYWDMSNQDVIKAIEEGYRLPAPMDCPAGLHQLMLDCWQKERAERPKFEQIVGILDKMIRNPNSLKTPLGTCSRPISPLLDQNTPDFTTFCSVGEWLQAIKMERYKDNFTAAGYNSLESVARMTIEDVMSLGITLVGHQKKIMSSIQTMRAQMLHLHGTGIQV
SGK2 (human), sequence (Q9HBY8 whole entry, looked up): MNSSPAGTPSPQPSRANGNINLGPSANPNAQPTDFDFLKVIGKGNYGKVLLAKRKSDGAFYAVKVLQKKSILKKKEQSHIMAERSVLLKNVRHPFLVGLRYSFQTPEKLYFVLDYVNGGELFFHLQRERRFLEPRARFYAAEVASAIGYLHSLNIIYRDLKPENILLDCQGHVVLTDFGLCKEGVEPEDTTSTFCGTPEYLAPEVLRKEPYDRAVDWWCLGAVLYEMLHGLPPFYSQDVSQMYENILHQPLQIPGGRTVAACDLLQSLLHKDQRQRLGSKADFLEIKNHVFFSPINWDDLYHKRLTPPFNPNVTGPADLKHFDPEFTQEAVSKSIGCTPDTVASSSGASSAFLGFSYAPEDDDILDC
IGF1R (human), sequence (P08069 whole entry, looked up): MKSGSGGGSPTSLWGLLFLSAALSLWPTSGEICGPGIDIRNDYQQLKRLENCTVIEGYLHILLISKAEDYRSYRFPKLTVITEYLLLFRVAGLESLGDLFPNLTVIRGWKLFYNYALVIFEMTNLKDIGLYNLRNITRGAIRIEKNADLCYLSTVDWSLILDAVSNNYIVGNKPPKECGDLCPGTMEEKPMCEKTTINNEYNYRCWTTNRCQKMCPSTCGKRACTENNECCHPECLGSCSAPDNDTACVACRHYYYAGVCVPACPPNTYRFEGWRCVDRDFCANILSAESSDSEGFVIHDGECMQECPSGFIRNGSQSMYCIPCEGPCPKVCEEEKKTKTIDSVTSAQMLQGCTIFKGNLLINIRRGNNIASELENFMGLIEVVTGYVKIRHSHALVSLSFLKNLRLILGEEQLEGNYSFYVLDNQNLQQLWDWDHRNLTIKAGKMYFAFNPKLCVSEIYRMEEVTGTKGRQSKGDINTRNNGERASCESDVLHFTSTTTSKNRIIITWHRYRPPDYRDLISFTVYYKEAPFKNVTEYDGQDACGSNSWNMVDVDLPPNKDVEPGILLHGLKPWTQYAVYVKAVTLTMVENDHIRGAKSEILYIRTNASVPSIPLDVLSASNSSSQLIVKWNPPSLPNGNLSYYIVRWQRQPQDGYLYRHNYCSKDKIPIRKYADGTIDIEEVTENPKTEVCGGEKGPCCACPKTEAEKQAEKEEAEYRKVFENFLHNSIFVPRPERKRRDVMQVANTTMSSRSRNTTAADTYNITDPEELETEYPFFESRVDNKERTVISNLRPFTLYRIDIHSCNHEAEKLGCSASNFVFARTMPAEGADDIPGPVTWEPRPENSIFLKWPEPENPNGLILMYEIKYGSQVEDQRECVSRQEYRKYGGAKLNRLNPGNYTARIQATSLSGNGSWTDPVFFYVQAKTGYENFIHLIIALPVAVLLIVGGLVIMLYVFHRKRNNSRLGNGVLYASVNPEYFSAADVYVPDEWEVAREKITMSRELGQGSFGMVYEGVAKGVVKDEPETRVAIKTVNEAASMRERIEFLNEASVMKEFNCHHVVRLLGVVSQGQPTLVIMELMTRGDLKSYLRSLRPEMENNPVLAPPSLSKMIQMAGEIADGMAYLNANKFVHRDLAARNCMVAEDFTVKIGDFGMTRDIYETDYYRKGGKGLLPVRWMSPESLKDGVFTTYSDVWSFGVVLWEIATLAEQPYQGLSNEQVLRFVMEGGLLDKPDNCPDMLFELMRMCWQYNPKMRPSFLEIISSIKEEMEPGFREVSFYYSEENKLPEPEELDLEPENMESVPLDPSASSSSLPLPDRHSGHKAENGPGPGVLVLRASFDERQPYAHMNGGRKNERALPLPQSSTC

The target of one assay is CDK3 CCNE1 (human) (UniProt Q00526+P24864). Nature of the assay: radiometric filter-binding kinase assay, Kinase HotSpot. To be noted: compound 0.5 µM; ATP 10 µM.
On to `O=C1Nc2ccccc2/C1=C1/Nc2ccccc2/C1=N\OCCC(O)CO` (configuration not stated), for which the residual activity was 65.2%.

Consider `O=C1NC(=O)C(c2c[nH]c3ccccc23)=C1c1c[nH]c2ccccc12`, for which the residual activity is 91.5%.

Another assay deals with EPHA4 (human) (UniProt P54764). The assay is described as above. To be noted: compound 0.5 µM; ATP 10 µM.
Take `Oc1ccc(Nc2nc(-c3ccc(Cl)cc3)cs2)cc1`: the residual activity stood at 104%.

On to `O=C1Nc2ccccc2/C1=C1/Nc2ccccc2/C1=N\OCCC(O)CO` (configuration not stated), for which the residual activity turned out to be 77.9%.

For the compound `O=C1NC(=O)C(c2c[nH]c3ccccc23)=C1c1c[nH]c2ccccc12`, the residual activity is 87.6%.

The next assay has as its target PRKCD (human) (UniProt Q05655). The description is as above. To be noted: compound 0.5 µM; ATP 10 µM.
With `Oc1ccc(Nc2nc(-c3ccc(Cl)cc3)cs2)cc1`, the residual activity worked out at 86.9%.

Regarding `O=C1Nc2ccccc2/C1=C1/Nc2ccccc2/C1=N\OCCC(O)CO` (configuration not stated), the residual activity turned out to be 80.6%.

In the case of `O=C1NC(=O)C(c2c[nH]c3ccccc23)=C1c1c[nH]c2ccccc12`, the residual activity is 55.5%.

In a further assay the target is CLK1 (human) (UniProt P49759). Described as above. The note with it: compound 0.5 µM; ATP 10 µM.
Take `Oc1ccc(Nc2nc(-c3ccc(Cl)cc3)cs2)cc1`: the residual activity was 104%.

Consider `O=C1Nc2ccccc2/C1=C1/Nc2ccccc2/C1=N\OCCC(O)CO` (configuration not stated), for which the residual activity came to 36.6%.

In the case of `O=C1NC(=O)C(c2c[nH]c3ccccc23)=C1c1c[nH]c2ccccc12`, the residual activity stood at 111%.

In a further assay the target is MAPK12 (human) (UniProt P53778). The assay is described as above. To be noted: compound 0.5 µM; ATP 10 µM.
MAPK12 (human), sequence (P53778 whole entry, looked up): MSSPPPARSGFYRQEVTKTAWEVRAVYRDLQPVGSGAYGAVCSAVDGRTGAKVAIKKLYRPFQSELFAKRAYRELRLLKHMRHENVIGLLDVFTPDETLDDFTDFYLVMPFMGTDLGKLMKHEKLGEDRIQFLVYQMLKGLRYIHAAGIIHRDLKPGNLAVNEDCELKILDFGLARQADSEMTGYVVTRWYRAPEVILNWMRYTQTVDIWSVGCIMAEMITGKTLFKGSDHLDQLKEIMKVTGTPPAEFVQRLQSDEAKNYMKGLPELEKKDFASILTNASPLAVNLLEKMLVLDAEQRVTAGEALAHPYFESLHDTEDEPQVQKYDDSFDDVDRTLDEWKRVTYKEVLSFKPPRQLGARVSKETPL
Regarding `Oc1ccc(Nc2nc(-c3ccc(Cl)cc3)cs2)cc1`, the residual activity was found to be 106%.

For `O=C1Nc2ccccc2/C1=C1/Nc2ccccc2/C1=N\OCCC(O)CO` (configuration not stated), the residual activity stood at 89.9%.

`O=C1NC(=O)C(c2c[nH]c3ccccc23)=C1c1c[nH]c2ccccc12`: the residual activity is 93%.

In a further assay the target is FGR (human) (UniProt P09769). Described as above. To be noted: compound 0.5 µM; ATP 10 µM.
Regarding `Oc1ccc(Nc2nc(-c3ccc(Cl)cc3)cs2)cc1`, the residual activity was determined as 96.4%.

As to `O=C1Nc2ccccc2/C1=C1/Nc2ccccc2/C1=N\OCCC(O)CO` (configuration not stated), the residual activity was found to be 11.6%.

Take `O=C1NC(=O)C(c2c[nH]c3ccccc23)=C1c1c[nH]c2ccccc12`: the residual activity is 88.5%.

A further assay concerns the target EPHA7 (human) (UniProt Q15375). Described as above. The note with it: compound 0.5 µM; ATP 10 µM.
Regarding `Oc1ccc(Nc2nc(-c3ccc(Cl)cc3)cs2)cc1`, the residual activity is 97.7%.

Turning to `O=C1Nc2ccccc2/C1=C1/Nc2ccccc2/C1=N\OCCC(O)CO` (configuration not stated), the residual activity stood at 71.4%.

In the case of `O=C1NC(=O)C(c2c[nH]c3ccccc23)=C1c1c[nH]c2ccccc12`, the residual activity was found to be 94.3%.

For a further assay, the target named is STK33 (human) (UniProt Q9BYT3). Described as above. To be noted: compound 0.5 µM; ATP 10 µM.
As to `Oc1ccc(Nc2nc(-c3ccc(Cl)cc3)cs2)cc1`, the residual activity amounted to 97.5%.

As for `O=C1Nc2ccccc2/C1=C1/Nc2ccccc2/C1=N\OCCC(O)CO` (configuration not stated), the residual activity stood at 22.3%.

Take `O=C1NC(=O)C(c2c[nH]c3ccccc23)=C1c1c[nH]c2ccccc12`: the residual activity was 97.7%.

The next assay addresses IGF1R (human) (UniProt P08069). The description is as above. The note with it: compound 0.5 µM; ATP 10 µM.
As to `Oc1ccc(Nc2nc(-c3ccc(Cl)cc3)cs2)cc1`, the residual activity was 102%.

As to `O=C1Nc2ccccc2/C1=C1/Nc2ccccc2/C1=N\OCCC(O)CO` (configuration not stated), the residual activity amounted to 39.1%.

For `O=C1NC(=O)C(c2c[nH]c3ccccc23)=C1c1c[nH]c2ccccc12`, the residual activity worked out at 80%.

In the next assay the target is RPS6KA5 KD2 (human) (UniProt O75582). The description is as above. To be noted: compound 0.5 µM; ATP 10 µM.
RPS6KA5 KD2 (human), sequence (O75582 whole entry, looked up): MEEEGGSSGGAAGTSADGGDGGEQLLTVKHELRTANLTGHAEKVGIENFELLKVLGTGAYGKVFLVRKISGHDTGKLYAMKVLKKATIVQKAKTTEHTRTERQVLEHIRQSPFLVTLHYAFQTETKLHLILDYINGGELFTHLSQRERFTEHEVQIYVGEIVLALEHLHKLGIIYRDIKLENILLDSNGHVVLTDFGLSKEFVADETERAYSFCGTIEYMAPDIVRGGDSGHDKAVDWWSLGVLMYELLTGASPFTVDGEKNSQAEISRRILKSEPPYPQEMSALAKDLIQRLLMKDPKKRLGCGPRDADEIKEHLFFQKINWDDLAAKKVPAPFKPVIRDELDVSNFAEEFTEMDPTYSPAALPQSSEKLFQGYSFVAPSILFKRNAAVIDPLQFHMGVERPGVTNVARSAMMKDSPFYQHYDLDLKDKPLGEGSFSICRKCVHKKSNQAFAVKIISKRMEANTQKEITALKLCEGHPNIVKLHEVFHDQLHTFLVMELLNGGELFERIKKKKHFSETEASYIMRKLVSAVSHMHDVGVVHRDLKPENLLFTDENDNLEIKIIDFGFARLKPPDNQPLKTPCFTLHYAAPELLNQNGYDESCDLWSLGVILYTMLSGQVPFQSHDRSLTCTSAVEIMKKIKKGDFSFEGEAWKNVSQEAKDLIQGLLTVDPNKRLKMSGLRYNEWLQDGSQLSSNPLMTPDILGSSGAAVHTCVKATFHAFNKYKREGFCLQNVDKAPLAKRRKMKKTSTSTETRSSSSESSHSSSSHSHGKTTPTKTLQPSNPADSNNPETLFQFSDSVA
For `Oc1ccc(Nc2nc(-c3ccc(Cl)cc3)cs2)cc1`, the residual activity was 109%.

With `O=C1Nc2ccccc2/C1=C1/Nc2ccccc2/C1=N\OCCC(O)CO` (configuration not stated), the residual activity was found to be 37.5%.

In the case of `O=C1NC(=O)C(c2c[nH]c3ccccc23)=C1c1c[nH]c2ccccc12`, the residual activity turned out to be 62%.

The next assay addresses JAK2 JH1 JH2 (human) (UniProt O60674). The description is as above. To be noted: compound 0.5 µM; ATP 10 µM.
`Oc1ccc(Nc2nc(-c3ccc(Cl)cc3)cs2)cc1`: the residual activity was found to be 101%.

Take `O=C1Nc2ccccc2/C1=C1/Nc2ccccc2/C1=N\OCCC(O)CO` (configuration not stated): the residual activity stood at 43.1%.

On to `O=C1NC(=O)C(c2c[nH]c3ccccc23)=C1c1c[nH]c2ccccc12`, for which the residual activity came out at 100%.

In a further assay the target is RAF1 (human) (UniProt P04049). The description is as above. The note with it: compound 0.5 µM; ATP 10 µM.
Regarding `Oc1ccc(Nc2nc(-c3ccc(Cl)cc3)cs2)cc1`, the residual activity is 95.7%.

As for `O=C1Nc2ccccc2/C1=C1/Nc2ccccc2/C1=N\OCCC(O)CO` (configuration not stated), the residual activity is 100%.

With `O=C1NC(=O)C(c2c[nH]c3ccccc23)=C1c1c[nH]c2ccccc12`, the residual activity is 122%.

The next assay has as its target SGK2 (human) (UniProt Q9HBY8). The assay is described as above. To be noted: compound 0.5 µM; ATP 10 µM.
As to `Oc1ccc(Nc2nc(-c3ccc(Cl)cc3)cs2)cc1`, the residual activity amounted to 108%.

For the compound `O=C1Nc2ccccc2/C1=C1/Nc2ccccc2/C1=N\OCCC(O)CO` (configuration not stated), the residual activity came out at 75.8%.

On to `O=C1NC(=O)C(c2c[nH]c3ccccc23)=C1c1c[nH]c2ccccc12`, for which the residual activity was 90.5%.

In a further assay the target is DDR2 (human) (UniProt Q16832). The description is as above. The note with it: compound 0.5 µM; ATP 10 µM.
In the case of `Oc1ccc(Nc2nc(-c3ccc(Cl)cc3)cs2)cc1`, the residual activity was 94.1%.

On to `O=C1Nc2ccccc2/C1=C1/Nc2ccccc2/C1=N\OCCC(O)CO` (configuration not stated), for which the residual activity was 86.1%.

Regarding `O=C1NC(=O)C(c2c[nH]c3ccccc23)=C1c1c[nH]c2ccccc12`, the residual activity came out at 101%.

A further assay concerns the target ACVRL1 (human) (UniProt P37023). The description is as above. The note with it: compound 0.5 µM; ATP 10 µM.
As for `Oc1ccc(Nc2nc(-c3ccc(Cl)cc3)cs2)cc1`, the residual activity is 103%.

As to `O=C1Nc2ccccc2/C1=C1/Nc2ccccc2/C1=N\OCCC(O)CO` (configuration not stated), the residual activity came to 103%.

As for `O=C1NC(=O)C(c2c[nH]c3ccccc23)=C1c1c[nH]c2ccccc12`, the residual activity was 96.5%.

For another assay, the target named is MKNK2 (human) (UniProt Q9HBH9). The assay is described as above. The note with it: compound 0.5 µM; ATP 10 µM.
Take `Oc1ccc(Nc2nc(-c3ccc(Cl)cc3)cs2)cc1`: the residual activity was determined as 84.5%.

As for `O=C1Nc2ccccc2/C1=C1/Nc2ccccc2/C1=N\OCCC(O)CO` (configuration not stated), the residual activity is 72.4%.

`O=C1NC(=O)C(c2c[nH]c3ccccc23)=C1c1c[nH]c2ccccc12`: the residual activity came out at 89.6%.

The target in the next assay is CAMK1 (human) (UniProt Q14012). The assay is described as above. The note with it: compound 0.5 µM; ATP 10 µM.
CAMK1 (human), sequence (Q14012 whole entry, looked up): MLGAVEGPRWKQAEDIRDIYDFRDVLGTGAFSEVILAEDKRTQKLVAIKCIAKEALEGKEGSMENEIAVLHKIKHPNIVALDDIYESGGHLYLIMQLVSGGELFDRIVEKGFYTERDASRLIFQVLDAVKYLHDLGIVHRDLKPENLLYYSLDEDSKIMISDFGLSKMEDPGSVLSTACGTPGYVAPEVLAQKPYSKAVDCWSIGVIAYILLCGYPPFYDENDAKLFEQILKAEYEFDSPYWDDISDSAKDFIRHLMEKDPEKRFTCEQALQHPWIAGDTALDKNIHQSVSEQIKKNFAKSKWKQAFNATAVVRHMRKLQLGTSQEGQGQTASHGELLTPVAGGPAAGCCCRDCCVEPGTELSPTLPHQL
In the case of `Oc1ccc(Nc2nc(-c3ccc(Cl)cc3)cs2)cc1`, the residual activity was 111%.

For `O=C1Nc2ccccc2/C1=C1/Nc2ccccc2/C1=N\OCCC(O)CO` (configuration not stated), the residual activity was determined as 76%.

With `O=C1NC(=O)C(c2c[nH]c3ccccc23)=C1c1c[nH]c2ccccc12`, the residual activity came out at 105%.

Another assay deals with CDK1 CCNB1 (human) (UniProt P06493+P14635). The description is as above. To be noted: compound 0.5 µM; ATP 10 µM.
As to `Oc1ccc(Nc2nc(-c3ccc(Cl)cc3)cs2)cc1`, the residual activity is 109%.

For `O=C1Nc2ccccc2/C1=C1/Nc2ccccc2/C1=N\OCCC(O)CO` (configuration not stated), the residual activity turned out to be 33.4%.

As for `O=C1NC(=O)C(c2c[nH]c3ccccc23)=C1c1c[nH]c2ccccc12`, the residual activity was found to be 96.5%.

The target of the next assay is TYK2 JH1 catalytic (human) (UniProt P29597). The assay is described as above. The note with it: compound 0.5 µM; ATP 10 µM.
Regarding `Oc1ccc(Nc2nc(-c3ccc(Cl)cc3)cs2)cc1`, the residual activity amounted to 110%.

As for `O=C1Nc2ccccc2/C1=C1/Nc2ccccc2/C1=N\OCCC(O)CO` (configuration not stated), the residual activity stood at 9.42%.

Take `O=C1NC(=O)C(c2c[nH]c3ccccc23)=C1c1c[nH]c2ccccc12`: the residual activity amounted to 109%.

For another assay, the target named is PIM2 (human) (UniProt Q9P1W9). The assay is described as above. The note with it: compound 0.5 µM; ATP 10 µM.
PIM2 (human), sequence (Q9P1W9 whole entry, looked up): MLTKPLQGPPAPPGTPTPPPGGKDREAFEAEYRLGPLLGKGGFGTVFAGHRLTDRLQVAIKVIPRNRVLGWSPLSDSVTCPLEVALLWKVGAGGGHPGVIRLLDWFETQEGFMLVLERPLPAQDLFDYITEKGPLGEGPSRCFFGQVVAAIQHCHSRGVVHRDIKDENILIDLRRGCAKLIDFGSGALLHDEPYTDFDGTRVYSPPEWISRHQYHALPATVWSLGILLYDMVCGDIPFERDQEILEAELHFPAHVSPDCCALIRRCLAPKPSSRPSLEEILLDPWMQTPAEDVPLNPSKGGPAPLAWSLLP
For `Oc1ccc(Nc2nc(-c3ccc(Cl)cc3)cs2)cc1`, the residual activity is 106%.

Turning to `O=C1Nc2ccccc2/C1=C1/Nc2ccccc2/C1=N\OCCC(O)CO` (configuration not stated), the residual activity worked out at 99.5%.

In the case of `O=C1NC(=O)C(c2c[nH]c3ccccc23)=C1c1c[nH]c2ccccc12`, the residual activity amounted to 105%.

The target of another assay is MAPK13 (human) (UniProt O15264). The assay is described as above. To be noted: compound 0.5 µM; ATP 10 µM.
MAPK13 (human), sequence (O15264 whole entry, looked up): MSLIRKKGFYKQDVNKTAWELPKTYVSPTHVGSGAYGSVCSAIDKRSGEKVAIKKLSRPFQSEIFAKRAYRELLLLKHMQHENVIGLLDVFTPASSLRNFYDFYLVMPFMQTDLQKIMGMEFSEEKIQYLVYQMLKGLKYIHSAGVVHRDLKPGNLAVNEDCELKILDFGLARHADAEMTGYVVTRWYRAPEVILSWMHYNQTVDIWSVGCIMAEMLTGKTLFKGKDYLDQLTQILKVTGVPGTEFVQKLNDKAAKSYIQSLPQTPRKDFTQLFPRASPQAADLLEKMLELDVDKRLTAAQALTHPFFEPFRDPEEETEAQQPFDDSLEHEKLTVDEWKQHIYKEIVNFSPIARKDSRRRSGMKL
On to `Oc1ccc(Nc2nc(-c3ccc(Cl)cc3)cs2)cc1`, for which the residual activity came to 107%.

On to `O=C1Nc2ccccc2/C1=C1/Nc2ccccc2/C1=N\OCCC(O)CO` (configuration not stated), for which the residual activity worked out at 94.8%.

In the case of `O=C1NC(=O)C(c2c[nH]c3ccccc23)=C1c1c[nH]c2ccccc12`, the residual activity came out at 104%.
